# Reference: patent US6414017B2, “Inhibition of hair growth” (The Gillette Company, priority 1993, dated 2002)
# Test system: hair growth of flank organs
# Experiment: hamster flank organ hair mass assay (reduction of hair growth)
# Type: in vivo, Male intact Golden Syrian hamsters
# Conditions: for reducing hair growth (result in words): vehicle and test not given
# Protocol: These organs produce hair in response to androgens in the hamster. To evaluate the effectiveness of a particular inhibitor in reducing hair growth, the flank organs of each of a group of hamsters are depilated by applying a thioglycolate based chemical depilatory (Surgex). To one organ of each animal 10 μl. of vehicle alone once a day is applied, while to the other organ of each animal an equal amount of vehicle containing the inhibitor is applied. After thirteen applications (one application per day for five days a week), the flank organs are shaved and the amount of recovered hair (hair mass) from each is weighed. […] Some preferred inhibitors were tested according to the above procedure.
# [1] = Table 3: 5% in Vehicle A, pH 7.5
# [2] = Table 3: 10% in Vehicle A, pH 7.5
# [3] = Table 3: 10% in Vehicle F, pH 5.5
# [4] = Table 3: 15% in Vehicle A, pH 7.5
# [5] = Table 3: 20% in Vehicle A, pH 8.0
# [6] = Table 3: 20% in Vehicle B, pH 7.0
# [7] = Table 3: 20% in Vehicle F, pH 5.5
structure (smiles),measurement,setting,value
"COc1ccc2c(c1)c(CC(=O)O)c(C)n2C(=O)c1ccc(Cl)cc1 [Indomethacin, 1-[p-chlorobenzoyl]-5-methoxy-2-methylindole-3-acetic acid]",Hair Mass Treated,[1],1.248 ± .20 mg
same,Percent Inhibition,[1],43.41 ± 7.75%
same,Hair Mass Treated,[2],1.084 ± .11 mg
same,Percent Inhibition,[2],53.32 ± 4.17%
same,Hair Mass Treated,[3],0.679 ± .08 mg
same,Percent Inhibition,[3],49.89 ± 5.54%
same,Hair Mass Treated,[4],0.768 ± .10 mg
same,Percent Inhibition,[4],68.77 ± 3.02%
same,Hair Mass Treated,[5],0.307 ± .08 mg
same,Percent Inhibition,[5],83.78 ± 3.66%
same,Hair Mass Treated,[6],0.261 ± .01 mg
same,Percent Inhibition,[6],83.37 ± 1.46%
same,Hair Mass Treated,[7],0.324 ± .08 mg
same,Percent Inhibition,[7],78.43 ± 4.39%
"Cc1cccc(Nc2ccccc2C(=O)O)c1C [Mefenamic acid, 2-[(2,3-dimethylphenyl)amino]benzoic acid]",Hair Mass Treated,"Dose 10%, Vehicle A, pH 8.8, thirteen applications",0.518 ± .13 mg
same,Percent Inhibition,"Dose 10%, Vehicle A, pH 8.8, vs vehicle treated side",67.18%
"O=c1cc(-c2ccc(O)cc2)oc2cc(O)cc(O)c12 [apigenin, 4′,5,7-trihydroxy flavone]",reducing hair growth (result in words),,effective in reducing hair growth
"O=C(O)C=Cc1ccc(O)c(O)c1 [Caffeic acid, 3,4-dihydroxycinnamic acid]",Hair Mass Treated,"Dose 15%, Vehicle H, pH 4.0, thirteen applications",0.797 ± .13 mg
same,Percent Inhibition,"Dose 15%, Vehicle H, pH 4.0, vs vehicle treated side",62 ± 7%
same,reducing hair growth (result in words),,effective in reducing hair growth
"COc1ccc2cc(CCC(C)=O)ccc2c1 [Nabumetone, 4-[6-methoxy-2-naphthyl]-2-butanone]",Hair Mass Treated,"Dose 15%, Vehicle E, pH 6.0, thirteen applications",1.267 ± .23 mg
same,Percent Inhibition,"Dose 15%, Vehicle E, pH 6.0, vs vehicle treated side",23.23%
"O=c1c(O)c(-c2ccc(O)c(O)c2)oc2cc(O)cc(O)c12 [Quercetin, 3,3′,4′,5,7-pentahydroxy flavone]",Hair Mass Treated,"Dose 5%, Vehicle G, pH 6.0, thirteen applications",1.100 ± .10 mg
same,Percent Inhibition,"Dose 5%, Vehicle G, pH 6.0, vs vehicle treated side",27 ± 6%
same,Hair Mass Treated,"Dose 10%, Vehicle E, pH 5.5, thirteen applications",0.419 ± .07 mg
same,Percent Inhibition,"Dose 10%, Vehicle E, pH 5.5, vs vehicle treated side",83 ± 4%
same,reducing hair growth (result in words),,effective in reducing hair growth
Cc1c(C)c2c(c(C)c1O)CCC(C)(CCCC(C)CCCC(C)CCCC(C)C)O2 (racemic) [dl-α-tocopherol],reducing hair growth (result in words),,effective in reducing hair growth
"CCCOC(=O)c1cc(O)c(O)c(O)c1 [Propyl gallate, propyl gallate]",reducing hair growth (result in words),,effective in reducing hair growth
"CC(Cc1ccc(O)c(O)c1)C(C)Cc1ccc(O)c(O)c1 (stereo not drawn) [NDGA, nordihydroguaiaretic acid]",Hair Mass Treated,"Dose 10%, Vehicle B, pH 6.5, thirteen applications",0.450 ± .11 mg
same,Percent Inhibition,"Dose 10%, Vehicle B, pH 6.5, vs vehicle treated side",81 ± 4%
same,reducing hair growth (result in words),,effective in reducing hair growth
"CN1C(C(=O)Nc2ccccn2)=C(O)c2sccc2S1(=O)=O [Tenoxican, 4-hydroxy-2-methyl-N-2-pyridinyl-2H-thieno[2,3-e]-1,2-thiazine-3-carboxamide-1,1-dioxide]",Hair Mass Treated,"Dose 15%, Vehicle B, pH 8.0, thirteen applications",0.326 ± .08 mg
same,Percent Inhibition,"Dose 15%, Vehicle B, pH 8.0, vs vehicle treated side",85.38%
"CC(C(=O)O)c1ccc2c(c1)[nH]c1ccc(Cl)cc12 (stereo not drawn) [Carprofen, 6-chloro-α-methylcarbazole-2-acetic acid]",Hair Mass Treated,"Dose 20%, Vehicle C, pH 6.0, thirteen applications",0.776 ± .11 mg
same,Percent Inhibition,"Dose 20%, Vehicle C, pH 6.0, vs vehicle treated side",29.69%
